Values joined by “and” are separate entries in the source; they are usually repeats but may differ in a detail not shown here. Equal values may be shown once.
Key:
[1] = target: T1, AtPep1 receptor (At1g73080, AtPEPR1) (Arabidopsis thaliana, UniProt Q9SSL9); assay: Binding assay of 125I1-Tyr-AtPep1 with Arabidopsis suspension cultured cells
T1 sequence (Q9SSL9 29-1123): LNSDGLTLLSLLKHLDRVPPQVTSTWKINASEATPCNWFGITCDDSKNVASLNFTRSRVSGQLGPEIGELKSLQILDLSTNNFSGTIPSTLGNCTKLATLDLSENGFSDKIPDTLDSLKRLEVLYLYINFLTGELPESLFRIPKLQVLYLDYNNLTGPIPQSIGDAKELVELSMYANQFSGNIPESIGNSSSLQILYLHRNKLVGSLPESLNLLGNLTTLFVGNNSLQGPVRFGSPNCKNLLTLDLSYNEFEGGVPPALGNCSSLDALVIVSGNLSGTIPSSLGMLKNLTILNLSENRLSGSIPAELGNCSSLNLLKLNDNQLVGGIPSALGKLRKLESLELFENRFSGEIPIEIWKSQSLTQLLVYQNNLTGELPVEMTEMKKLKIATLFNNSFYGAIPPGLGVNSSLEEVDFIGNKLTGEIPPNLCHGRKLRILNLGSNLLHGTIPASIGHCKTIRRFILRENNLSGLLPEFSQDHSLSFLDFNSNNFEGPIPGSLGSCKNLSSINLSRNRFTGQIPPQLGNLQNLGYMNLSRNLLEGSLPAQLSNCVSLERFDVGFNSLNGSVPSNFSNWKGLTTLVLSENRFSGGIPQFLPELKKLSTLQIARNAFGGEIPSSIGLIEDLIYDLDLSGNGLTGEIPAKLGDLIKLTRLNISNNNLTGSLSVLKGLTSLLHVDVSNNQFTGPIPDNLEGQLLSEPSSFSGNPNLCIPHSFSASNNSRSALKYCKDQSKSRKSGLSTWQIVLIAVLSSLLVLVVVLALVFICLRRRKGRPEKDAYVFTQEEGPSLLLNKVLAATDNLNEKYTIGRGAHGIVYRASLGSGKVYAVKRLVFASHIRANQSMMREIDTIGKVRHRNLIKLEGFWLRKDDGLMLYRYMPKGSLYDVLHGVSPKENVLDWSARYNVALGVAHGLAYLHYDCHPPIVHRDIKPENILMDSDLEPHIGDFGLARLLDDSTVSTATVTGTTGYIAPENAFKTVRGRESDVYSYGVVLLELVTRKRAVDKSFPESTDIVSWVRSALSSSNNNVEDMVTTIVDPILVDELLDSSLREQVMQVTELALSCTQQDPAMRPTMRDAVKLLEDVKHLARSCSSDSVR
Experimental: Binding assays. […] The filtered cells were washed three times with 5 mL of cold MS medium containing 3% sucrose, suspended in 1 mL MS medium containing 3% sucrose in a glass test tube, and analyzed for total radioactivity in a gamma-ray counter (Isodata 2020; Isodata Inc., Palatine, Ill.).

[2] = target: T2, AtPEPR2 (Arabidopsis thaliana, UniProt Q9FZ59); assay: Medium alkalinization of transgenic tobacco cells expressing AtPEPR2; type: cell-based
T2 construct: the AtPEPR2 coding region was fused to the CaMV 35S promoter and introduced into tobacco suspension-cultured cells; expressed in transfected cells; host or cells: tobacco suspension-cultured cells, transformed by Agrobacterium, kanamycin-selected
T2 sequence (Q9FZ59 27-1088): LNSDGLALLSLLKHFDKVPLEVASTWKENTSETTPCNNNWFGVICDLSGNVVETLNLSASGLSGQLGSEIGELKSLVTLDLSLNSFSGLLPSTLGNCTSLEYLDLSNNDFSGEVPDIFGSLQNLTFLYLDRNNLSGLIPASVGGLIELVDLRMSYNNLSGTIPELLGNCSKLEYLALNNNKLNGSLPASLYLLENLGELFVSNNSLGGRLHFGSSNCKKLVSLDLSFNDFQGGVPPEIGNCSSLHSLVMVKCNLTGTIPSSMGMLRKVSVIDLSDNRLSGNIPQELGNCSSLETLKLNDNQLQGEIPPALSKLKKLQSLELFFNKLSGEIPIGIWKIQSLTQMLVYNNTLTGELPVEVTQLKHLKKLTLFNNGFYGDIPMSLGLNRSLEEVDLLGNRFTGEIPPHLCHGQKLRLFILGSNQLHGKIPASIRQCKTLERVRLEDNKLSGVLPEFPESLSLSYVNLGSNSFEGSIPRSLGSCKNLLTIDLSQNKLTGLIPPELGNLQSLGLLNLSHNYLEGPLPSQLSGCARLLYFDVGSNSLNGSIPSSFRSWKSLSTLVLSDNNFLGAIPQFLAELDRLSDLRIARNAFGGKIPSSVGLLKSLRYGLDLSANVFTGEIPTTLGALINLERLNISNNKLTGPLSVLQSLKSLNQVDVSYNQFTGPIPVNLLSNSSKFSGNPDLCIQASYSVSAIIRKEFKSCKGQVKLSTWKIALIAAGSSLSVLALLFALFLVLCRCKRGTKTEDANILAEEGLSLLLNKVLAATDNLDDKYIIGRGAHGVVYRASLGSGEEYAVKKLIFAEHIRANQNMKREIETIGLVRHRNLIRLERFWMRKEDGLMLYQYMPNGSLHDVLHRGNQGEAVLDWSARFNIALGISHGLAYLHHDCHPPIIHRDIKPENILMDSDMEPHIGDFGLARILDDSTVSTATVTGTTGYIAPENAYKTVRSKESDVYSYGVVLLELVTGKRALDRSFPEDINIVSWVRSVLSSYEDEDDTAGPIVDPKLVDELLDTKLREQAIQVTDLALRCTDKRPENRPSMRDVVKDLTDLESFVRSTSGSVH
Experimental: To clarify whether AtPEPR2 binds to AtPep1, the AtPEPR2 coding region was fused to the CaMV 35S promoter and introduced into tobacco suspension-cultured cells by Agrobacterium. Tobacco cells expressing AtPEPR1 and GUS genes were also created as positive and negative controls, respectively. […] These transgenic lines were analyzed for alkalinizing activity as previously described (Pearce et al., Proc. Natl. Acad. Sci. USA 98, 12843-12847, 2001).
The response to all AtPep peptides in transgenic tobacco cells expressing either AtPEPR1 or AtPEPR2 was analyzed by the medium alkalinization assay.

[3] = AtPEPR2 expressing tobacco cells

Substance: H-ATKVKAKQRGKEKVSSGRPGQHN-OH [AtPep1]
- Kd [1]: 0.25 nM
- EC50 [2]: ~0.25 nM
- alkalinization of the medium [2, 3]: caused alkalinization of the media
- maximal change [2, 3]: 1-1.2 pH units and 1.2 pH units

Source: patent US8686224B2, “Plant defense signal peptides” (priority 2005, dated 2014)
